{"source": "patent US20250281610A1", "about": "“P2RY2 ACTIVITY MODULATORS” (Deutsches Krebsforschungszentrum Stiftung des öffentlichen …, priority 2022, published 2025)", "key": {"[1]": {"tested_on": "MART-1-specific TCR transduced T cells cultured with MART-1-epitope transduced BxPC3 cells", "experiment": "T cell activation markers in co-culture of MART-1-specific TCR-T cells with MART-1+ BxPC3 cells", "assay_type": "cell-based, human", "conditions": "single agent: 5 μM AR-C, 10 μg/ml atezolizumab or 10 μg/ml durvalumab, 6-24 hours, CD8+ MART-1-specific TCR+ population (FIG. 10)", "excerpt": "FIG. 10. […] Untreated cells served as the control.\n(§1) MART-1 specific T cells were generated as described (Mezzadra et al., Nature 549, 106-110 (2017); Jorritsma et al., Blood 110 (10): 3564-3572. (2007)). To generate CD33-specific chimeric antigen receptor (CAR) T cells, a CD33Hul95-CD28Z CAR (described in WO 2019/178382) cassette was cloned into a retroviral vector, and the resulting virus was used to transduce T cells as described (Mezzadra et al., Nature 549, 106-110 (2017); Jorritsma et al., Blood 110 (10): 3564-3572. (2007)).\nMART1-specific CD8+ T cells and MART1 epitope-expressing cancer cells were mixed at a ratio of 1:16 to 1:4. […] T cell activation was assessed by surface staining with anti-CD137-BV421 (4-1BB, Biolegend), anti-CD69-APC/Fire™ 750 (FN50, Biolegend), anti-CD25-AF700 (BC96, Biolegend) antibodies and intracellular staining with anti-IL-2-PE/Cy7 (MQ1-17H12, Biolegend), anti-IFN-7-BV421 (4S.B3, Biolegend), anti-TNF-α-BV785 (MAb11, Biolegend) antibodies, followed by flow cytometry analysis. For intracellular staining, brefeldin A (Biolegend) was added to the cell culture medium 4 h before cells were harvested. The viability of cancer cells that grow in suspension including THP-1 cells was assessed by flow cytometry-based absolute cell counting using AccuCount beads (Spherotech). For adherent cancer cells including BxPC3 and MCF7, the cell viability was quantified using CellTiter-Blue Cell Viability Assay (Promega)."}, "BxPC3 cells": {"tested_on": "BxPC3 cells", "experiment": "Viability of BxPC3 cells in co-culture with MART-1-specific TCR-T cells (CellTiter-Blue)", "assay_type": "cell-based, human", "conditions": "single agent: 5 μM AR-C, 10 μg/ml atezolizumab or 10 μg/ml durvalumab, 6-24 hours (FIG. 11)", "excerpt": "FIG. 11. […] Untreated cells served as the control.\nas §1\nMART1-specific CD8+ T cells and MART1 epitope-expressing cancer cells were mixed at a ratio of 1:16 to 1:4. Next, cells were centrifugated at 1,600 g for 3 min and incubated at 37° C. and 5% CO2 for 12-72 hours. T cell activation was assessed by surface staining with anti-CD137-BV421 (4-1BB, Biolegend), anti-CD69-APC/Fire™ 750 (FN50, Biolegend), anti-CD25-AF700 (BC96, Biolegend) antibodies and intracellular staining with anti-IL-2-PE/Cy7 (MQ1-17H12, Biolegend), anti-IFN-7-BV421 (4S.B3, Biolegend), anti-TNF-α-BV785 (MAb11, Biolegend) antibodies, followed by flow cytometry analysis. For intracellular staining, brefeldin A (Biolegend) was added to the cell culture medium 4 h before cells were harvested. The viability of cancer cells that grow in suspension including THP-1 cells was assessed by flow cytometry-based absolute cell counting using AccuCount beads (Spherotech). For adherent cancer cells including BxPC3 and MCF7, the cell viability was quantified using CellTiter-Blue Cell Viability Assay (Promega)."}}}
{"compound": "Cc1ccc2c(c1)C=Cc1cc(C)ccc1C2c1cn(Cc2ccc(C(=O)Nc3nn[nH]n3)o2)c(=O)[nH]c1=S", "note": "[AR-C 118925XX]", "values": [{"measurement": "expression of CD25 on T cells", "setting": "[1]", "value": "elevated"}, {"measurement": "expression of CD69 on T cells", "setting": "[1]", "value": "elevated"}, {"measurement": "expression of CD137 on T cells", "setting": "[1]", "value": "elevated"}, {"measurement": "viability of BxPC3 cells", "setting": "BxPC3 cells", "value": "reduced"}]}
